This passage reports melting point, inhibition and Ki results from patent US7645752B2, “Sulfonyl substituted 1H-indoles as ligands for the 5-hydroxytryptamine receptors” (Wyeth LLC, priority 2006, dated 2010).

Each structure is given as a SMILES string. Where a name gives a salt, the structure may show the parent alone.

For orientation: melting point means the temperature, or range, at which the solid turns liquid. By inhibition is commonly meant how much of the control response was suppressed. One may read the Ki as the equilibrium dissociation constant of an inhibitor or competing ligand from its target.

Test system in the first series: not given
Assay: not given
Details: not given
Turning to `CN(C)CCc1ccc2[nH]cc(S(=O)(=O)c3ccccc3)c2c1` (as salt: hydrochloride) [Example 1, N,N-dimethyl-N-{2-[3-(phenylsulfonyl)-1H-indol-5-yl]ethyl}amine], the melting point is 251 °C.

Compound `CCCNCCc1ccc2[nH]cc(S(=O)(=O)c3ccccc3)c2c1` (as salt: hydrochloride) [Example 2, N-{2-[3-(phenylsulfonyl)-1H-indol-5-yl]ethyl}-N-propylamine] gave a melting point of 189 to 192 °C.

For the compound `CC(C)NCCc1ccc2[nH]cc(S(=O)(=O)c3ccccc3)c2c1` (as salt: hydrochloride) [Example 3, N-{2-[3-(phenylsulfonyl)-1H-indol-5-yl]ethyl}propan-2-amine], the melting point turned out to be 263 °C.

Turning to `O=S(=O)(c1ccccc1)c1c[nH]c2ccc(CCNC3CC3)cc12` (as salt: hydrochloride) [Example 4, N-{2-[3-(phenylsulfonyl)-1H-indol-5-yl]ethyl}cyclopropanamine], the melting point was in the range of 205 to 208 °C.

`O=S(=O)(c1ccccc1)c1c[nH]c2ccc(CCNC3CCCC3)cc12` (as salt: hydrochloride) [Example 5, N-{2-[3-(phenylsulfonyl)-1H-indol-5-yl]ethyl}cyclopentanamine] came in with a melting point of 252 °C.

In turn, `O=S(=O)(c1ccccc1)c1c[nH]c2ccc(CCNCc3ccccc3)cc12` (as salt: hydrochloride) [Example 6, N-benzyl-N-{2-[3-(phenylsulfonyl)-1H-indol-5-yl]ethyl}amine] registered a melting point of 215 to 220 °C.

As for `CCN(C)CCc1ccc2[nH]cc(S(=O)(=O)c3ccccc3)c2c1` (as salt: hydrochloride) [Example 7, N-ethyl-N-methyl-N-{2-[3-(phenylsulfonyl)-1H-indol-5-yl]ethyl}amine], the melting point is 203 °C.

For the compound `CCN(CC)CCc1ccc2[nH]cc(S(=O)(=O)c3ccccc3)c2c1` (as salt: hydrochloride) [Example 8, N,N-diethyl-N-{2-[3-(phenylsulfonyl)-1H-indol-5-yl]ethyl}amine], the melting point lay within 193 to 195 °C.

Compound `O=S(=O)(c1ccccc1)c1c[nH]c2ccc(CCN3CCCC3)cc12` (as salt: hydrochloride) [Example 9, 3-(phenylsulfonyl)-5-(2-pyrrolidin-1-ylethyl)-1H-indole] had a melting point of 230 to 232 °C.

`O=S(=O)(c1ccccc1)c1c[nH]c2ccc(CCN3CCCCC3)cc12` (as salt: hydrochloride) [Example 10, 3-(phenylsulfonyl)-5-(2-piperidin-1-ylethyl)-1H-indole] gave a melting point of 272 °C.

As for `O=S(=O)(c1ccccc1)c1c[nH]c2ccc(CCN3CCOCC3)cc12` (as salt: hydrochloride) [Example 11, 5-(2-morpholin-4-ylethyl)-3-(phenylsulfonyl)-1H-indole], the melting point fell in the range of 250 to 255 °C.

As to `NCCc1ccc2[nH]cc(S(=O)(=O)c3ccccc3)c2c1` (as salt: hydrochloride) [Example 12, {2-[3-(phenylsulfonyl)-1H-indol-5-yl]ethyl}amine], the melting point worked out at 200 °C.

On to `O=S(=O)(c1ccccc1)c1c[nH]c2ccc(CCN3CCNCC3)cc12` (as salt: hydrochloride) [Example 13, 3-(phenylsulfonyl)-5-(2-piperazin-1-ylethyl)-1H-indole], for which the melting point came out at 220 °C.

For `CN(C)CCc1cccc2c(S(=O)(=O)c3ccccc3)c[nH]c12` (as salt: hydrochloride) [Example 18, N,N-dimethyl-N-{2-[3-(phenylsulfonyl)-1H-indol-7-yl]ethyl}amine], the melting point was 205 to 208 °C (dec.).

The compound `CNCCc1cccc2c(S(=O)(=O)c3ccccc3)c[nH]c12` (as salt: hydrochloride) [Example 19, N-methyl-N-{2-[3-(phenylsulfonyl)-1H-indol-7-yl]ethyl}amine] gave a melting point of 187 to 188 °C.

Turning to `CCCNCCc1cccc2c(S(=O)(=O)c3ccccc3)c[nH]c12` (as salt: hydrochloride) [Example 20, N-{2-[3-(phenylsulfonyl)-1H-indol-7-yl]ethyl}-N-propylamine], the melting point was in the range of 260 to 262 °C.

Turning to `CC(C)NCCc1cccc2c(S(=O)(=O)c3ccccc3)c[nH]c12` (as salt: hydrochloride) [Example 21, N-{2-[3-(phenylsulfonyl)-1H-indol-7-yl]ethyl}propan-2-amine], the melting point was 291 to 293 °C (dec.).

For the compound `O=S(=O)(c1ccccc1)c1c[nH]c2c(CCNC3CC3)cccc12` (as salt: hydrochloride) [Example 22, N-{2-[3-(phenylsulfonyl)-1H-indol-7-yl]ethyl}cyclopropanamine], the melting point is 213 to 216 °C (dec.).

Take `O=S(=O)(c1ccccc1)c1c[nH]c2c(CCNC3CCCC3)cccc12` (as salt: hydrochloride) [Example 23, N-{2-[3-(phenylsulfonyl)-1H-indol-7-yl]ethyl}cyclopentanamine]: the melting point was 255 to 256 °C (dec.).

The next series deals with T1, human cloned 5-HT6 receptors (Homo sapiens, UniProt P50406).
T1 construct: expressed in transfected cells; host or cells: HeLa cells
T1 sequence (P50406 whole entry): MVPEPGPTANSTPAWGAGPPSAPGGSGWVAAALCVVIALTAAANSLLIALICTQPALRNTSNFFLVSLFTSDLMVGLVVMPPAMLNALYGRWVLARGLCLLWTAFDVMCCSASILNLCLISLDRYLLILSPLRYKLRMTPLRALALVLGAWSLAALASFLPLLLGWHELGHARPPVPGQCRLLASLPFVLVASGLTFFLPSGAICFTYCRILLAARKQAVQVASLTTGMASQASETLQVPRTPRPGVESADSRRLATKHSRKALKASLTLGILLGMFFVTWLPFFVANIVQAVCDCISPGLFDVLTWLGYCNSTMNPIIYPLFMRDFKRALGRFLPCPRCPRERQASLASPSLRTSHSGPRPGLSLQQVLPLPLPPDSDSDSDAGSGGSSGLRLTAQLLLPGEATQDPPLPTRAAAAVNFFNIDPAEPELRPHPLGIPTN
The experiment in a line: 5-HT6 binding affinity, [3H]-LSD displacement on membranes of Hela cells. The following applies: Table 1; 5-HT6 binding, at 1 micromole; read-out: % inhibition at 1 micromole. How it is done:
The affinity of test compounds for the 5-HT6 receptor is evaluated in the following manner. Cultured Hela cells expressing human cloned 5-HT6 receptors are harvested and centrifuged at low speed (1,000×g) for 10.0 min to remove the culture media. The harvested cells are suspended in half volume of fresh physiological phosphate buffered saline solution and recentrifuged at the same speed. This operation is repeated. The collected cells are then homogenized in ten volumes of 50 mM Tris.HCl (pH 7.4) and 0.5 mM EDTA. The homogenate is centrifuged at 40,000×g for 30.0 min and the precipitate is collected. The obtained pellet is resuspended in 10 volumes of Tris.HCl buffer and recentrifuged at the same speed. The final pellet is suspended in a small volume of Tris.HCl buffer and the tissue protein content is determined in aliquots of 10-25 microliter volumes. […] The volume of the suspended cell membranes is adjusted to give a tissue protein concentration of 1.0 mg/mL of suspension. The prepared membrane suspension (10 times concentrated) is aliquoted in 1.0 mL volumes and stored at −70° C. until used in subsequent binding experiments.
Binding experiments are performed in a 96 well microtiter plate format in a total volume of 200 microliters. […] The test compounds are added in 20.0 microliter volume.
The bound complex caught on the filter disk is allowed to air dry and the radioactivity is measured in a Packard TopCount® equipped with six photomultiplier detectors, after the addition of 40.0 microliter Microscint®-20 scintillant to each shallow well.
Binding in the presence of varying concentrations of test compound is expressed as a percentage of specific binding in the absence of test compound. The results are plotted as log % bound versus log concentration of the test compound.
On to `O=S(=O)(c1ccccc1)c1c[nH]c2cc(CCNC3CCCC3)ccc12` [Example 93, N-{2-[3-(phenylsulfonyl)-1H-indol-6-yl]ethyl}cyclopentanamine], for which the inhibition at 1 µM turned out to be 71%.

In the case of `O=S(=O)(c1ccccc1)c1c[nH]c2cc(CCNC3CCCCC3)ccc12` [Example 94, N-{2-[3-(phenylsulfonyl)-1H-indol-6-yl]ethyl}cyclohexanamine], the inhibition at 1 µM was 51%.

On to `CN(CCc1ccc2c(S(=O)(=O)c3ccccc3)c[nH]c2c1)C1CCCCC1` [Example 96, N-cyclohexyl-N-methyl-N-{2-[3-(phenylsulfonyl)-1H-indol-6-yl]ethyl}amine], for which the inhibition at 1 µM amounted to 75%.

In the case of `O=S(=O)(c1ccccc1)c1c[nH]c2cc(CCN3CCCC3)ccc12` [Example 98, 3-(phenylsulfonyl)-6-(2-pyrrolidin-1-ylethyl)-1H-indole], the inhibition at 1 µM came out at 76%.

For `O=S(=O)(c1ccccc1)c1c[nH]c2cc(CCN3CCCCC3)ccc12` [Example 99, 3-(phenylsulfonyl)-6-(2-piperidin-1-ylethyl)-1H-indole], the inhibition at 1 µM stood at 79%.

As to `O=S(=O)(c1ccccc1)c1c[nH]c2cccc(CCC3CNCCO3)c12` (stereo not drawn) [Example 100, 4-(2-morpholin-6-ylethyl)-3-(phenylsulfonyl)-1H-indole], the inhibition at 1 µM amounted to 54%.

Consider `O=S(=O)(c1ccccc1)c1c[nH]c2cc(CCN3CCNCC3)ccc12` [Example 101, 3-phenylsulfonyl-6-(2-piperazin-1-yl-ethyl)-1H-indole], for which the inhibition at 1 µM is 55%.

Regarding `CC(C)CNCCc1ccc2c(S(=O)(=O)c3ccccc3)c[nH]c2c1` [Example 102, N-isobutyl-N-{2-[3-(phenylsulfonyl)-1H-indol-6-yl]ethyl}amine], the inhibition at 1 µM stood at 72%.

For `CCC(CC)NCCc1ccc2c(S(=O)(=O)c3ccccc3)c[nH]c2c1` [Example 103, (1-Ethyl-propyl)-{2-[3-(phenylsulfonyl)-1H-indol-6-yl]-ethyl}-amine], the inhibition at 1 µM turned out to be 63%.

Turning to `CCC(C)CNCCc1ccc2c(S(=O)(=O)c3ccccc3)c[nH]c2c1` (stereo not drawn) [Example 104, {2-[3-(phenylsulfonyl)-1H-indol-6-yl]-ethyl}-(2-methyl-butyl)-amine], the inhibition at 1 µM came out at 69%.

In the case of `CC(NCCc1ccc2c(S(=O)(=O)c3ccccc3)c[nH]c2c1)C(C)(C)C` (stereo not drawn) [Example 105, N-{2-[3-(phenylsulfonyl)-1H-indol-6-yl]ethyl}-N-(1,2,2-trimethylpropyl)amine], the inhibition at 1 µM amounted to 55%.

In the case of `CC(C)(C)CNCCc1ccc2c(S(=O)(=O)c3ccccc3)c[nH]c2c1` [Example 106, N-(2,2-dimethylpropyl)-N-{2-[3-(phenylsulfonyl)-1H-indol-6-yl]ethyl}amine], the inhibition at 1 µM was found to be 67%.

Staying with this series, now noted: Table 1; [3H]-LSD 3.0 nM, Hela cell membranes; read-out: Ki (nM) @ 5-HT6 receptor.
As to `CCN(C)CCc1ccc2c(S(=O)(=O)c3ccccc3)c[nH]c2c1` [Example 95, N-ethyl-N-methyl-N-{2-[3-(phenylsulfonyl)-1H-indol-6-yl]ethyl}amine], the Ki was found to be 118 nM.

`CCN(CC)CCc1ccc2c(S(=O)(=O)c3ccccc3)c[nH]c2c1` [Example 97, N,N-diethyl-N-{2-[3-(phenylsulfonyl)-1H-indol-6-yl]ethyl}amine]: the Ki amounted to 12.3 nM.

`O=S(=O)(c1ccccc1)c1c[nH]c2cc(CCNCC3CCCO3)ccc12` (stereo not drawn) [Example 107, N-{2-[3-(phenylsulfonyl)-1H-indol-6-yl]ethyl}-N-((tetrahydrofur-2-yl)methyl)amine]: the Ki is 85 nM.

For `O=S(=O)(c1ccccc1)c1c[nH]c2cc(CCN3CCC3)ccc12` [Example 108, 6-(2-Azetidin-1-yl-ethyl)-3-phenylsulfonyl-1H-indole], the inhibitory constant (Ki) is 74 nM.

For the compound `NCCc1ccc2c(S(=O)(=O)c3ccccc3)c[nH]c2c1` [Example 109, {2-[3-(phenylsulfonyl)-1H-indol-6-yl]ethyl}amine], the Ki stood at 10 nM.
